By Ki is commonly meant a measure of affinity in units of concentration, obtained from inhibition or displacement. Lower therefore signals tighter binding. As a reminder, the IC50 is the concentration at which inhibition is half-maximal. A lower IC50 goes with higher potency. As a reminder, the AUC(0-t) is the area under the concentration-time curve up to a stated or last time point. A high value points to more exposure. As a reminder, the Cmax is the highest concentration seen after dosing. Usually Tmax stands for the time at which the peak concentration occurs.

Where two headings read alike, the source gives them in different places.

Data set [1] relates to human liver microsomes (HLM). The data set can be described thus: Inhibition of aumolertinib metabolism in human liver microsomes (IC50, Ki). It counts as in vitro ADME. The settings on record: HLM. For orientation: Microsomes from liver hold many membrane-bound enzymes, among them those of drug oxidation.
Procedure: (§1) When screening for inhibitors, the amount of RLM in the system and the reaction time were optimized and set to 0.5 mg/mL and 30 min, respectively. The concentration of the inhibitor was set at 100 μM. […] The above mixture was pre-incubated at 37 °C for 5 min, and then 1 mM NADPH was added to initiate the reaction, and incubated for another 30 min. Afterwards, 400 μL of cold acetonitrile and 20 μL of diazepam (500 ng/mL) were added to the system to stop the reaction. After vortexing for 2 min, the mixture is centrifuged at 16,200 g for 10 min and the supernatant is subjected to analysis by UPLC-MS/MS for the detection of analytes.
For data set [2], the system named is aumolertinib metabolism in human liver microsomes. The description is as above. The settings on record: human, human liver microsomes, probe aumolertinib 20 μM. It is filed as in vitro ADME.
Procedure: as §1
The target of a further data set is CYP3A4.1 (Homo sapiens, UniProt P08684).
CYP3A4.1, sequence (P08684 whole entry): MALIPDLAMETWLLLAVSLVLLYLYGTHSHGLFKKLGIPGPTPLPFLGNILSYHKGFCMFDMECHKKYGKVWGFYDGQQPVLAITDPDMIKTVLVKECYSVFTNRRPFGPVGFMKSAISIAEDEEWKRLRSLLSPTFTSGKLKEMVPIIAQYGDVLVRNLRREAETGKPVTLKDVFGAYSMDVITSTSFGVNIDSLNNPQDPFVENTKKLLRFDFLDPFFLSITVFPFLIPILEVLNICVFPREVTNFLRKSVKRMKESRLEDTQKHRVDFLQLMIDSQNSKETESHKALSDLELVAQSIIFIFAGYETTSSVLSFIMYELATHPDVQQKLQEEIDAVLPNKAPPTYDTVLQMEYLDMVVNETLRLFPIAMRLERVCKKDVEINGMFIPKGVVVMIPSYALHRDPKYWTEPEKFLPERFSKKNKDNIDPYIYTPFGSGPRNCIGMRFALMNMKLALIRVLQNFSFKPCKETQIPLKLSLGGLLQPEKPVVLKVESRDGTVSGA
Data set [3] relates to rat liver microsomes (RLM). The data set can be described thus: Inhibition of aumolertinib metabolism in rat liver microsomes (screen, IC50, Ki).
Procedure: as §1
Data set [4] relates to aumolertinib metabolism in rat liver microsomes. The data set can be described thus: in vitro. The settings on record: probe aumolertinib 25 μM.
Procedure: as §1
For data set [5] the following is noted: rat, in vivo, po, 11 mg/kg.
The nature of data set [6]: Pharmacokinetics in AAV8-CYP3A4*1 mice.
Details of data set [7]: method as in Zhou et al., 2021; Liu et al., 2022a; Liu et al., 2022b. The settings on record: ref Zhou et al., 2021, Liu et al., 2022a, 2022b; cited from earlier work.
For data set [8] the following is noted: mouse, in vivo, po.
Where [9] appears, read: aumolertinib 16.5 mg/kg oral alone (Aum).
Where [10] appears, read: carvedilol 7.5 mg/kg 0.5 h before aumolertinib 16.5 mg/kg oral (Car+Aum).

With `COc1ccccc1OCCNCC(O)COc1cccc2[nH]c3ccccc3c12` (stereo not shown) [Carvedilol], the inhibition mechanism entry in data set [1] is “non-competitive and competitive mixed”; against CYP3A4.1 it was “competitively inhibited”; in data set [3] it was “non-competitive and competitive mixed”. The inhibition constant (Ki) in data set [1] (Lineweaver-Burk secondary plot) amounted to 8.81 µM; in [3] (Lineweaver-Burk secondary plot), 16.7 µM. The αKi was found to be 47.76 µM in data set [1] (Lineweaver-Burk secondary plot) and 51.66 µM in data set [3] (Lineweaver-Burk secondary plot). Moreover, the IC50 at 30 min in data set [2] was 12.7 ± 0.59 µM; in data set [4], 27.3 ± 2.52 µM.
In the case of `C=CC(=O)Nc1cc(Nc2nccc(-c3cn(C4CC4)c4ccccc34)n2)c(OC)cc1N(C)CCNC` [HAS-719], in data set [5], the CLz/F is 5750.5 ± 2617.5 mL/min/kg, the Vz/F is 1,913.68 ± 1,058.91 L/kg and the t1/2z is recorded as 3.69 ± 0.57 h. In [6] (setting [9]), the “AUC(0-t)” value stood at 905.88 ± 375.90 ng·h/mL, the “AUC(0-∞)” value stood at 908.18 ± 374.69 ng·h/mL, the CLz/F is 335 ± 128 mL/min/kg and the Cmax amounted to 47.06 ± 20.43 ng/mL. Further, in data set [6] (setting [9]), the Tmax was determined as 10.71 ± 9.53 h, the Vz/F worked out at 113.97 ± 104.36 L/kg and the t1/2z was found to be 3.80 ± 2.94 h. In data set [6] (setting [10]), the “AUC(0-t)” value was 663.56 ± 198.24 ng·h/mL, the “AUC(0-∞)” value was 669.24 ± 196.18 ng·h/mL, the CLz/F stood at 423.8 ± 103 mL/min/kg and the Cmax was 34.97 ± 15.02 ng/mL. For the same molecule, in [6] (setting [10]), the Tmax amounted to 17.86 ± 10.53 h, the Vz/F was found to be 203.88 ± 121.79 L/kg and the t1/2z came out at 5.34 ± 2.61 h. For the same molecule, in [7], the “plasma exposure relative to the parent drug” value is reported as 40%. In data set [8], the area under the curve AUC(0-t) is 429.91 ± 178.00 ng·h/mL, the “AUC(0-∞)” value was 572.38 ± 354.11 ng·h/mL, the CLz/F amounted to 586.7 ± 249.8 mL/min/kg and the peak concentration (Cmax) turned out to be 23.01 ± 11.89 ng/mL. In addition, in [8], the time to peak (Tmax) turned out to be 14.29 ± 13.44 h, the Vz/F is 773.46±1,086.45 L/kg and the t1/2z is 14.62 ± 18.23 h.
For the molecule `CCCc1nc2c(C)cc(-c3nc4ccccc4n3C)cc2n1Cc1ccc(-c2ccccc2C(=O)O)cc1` [Telmisartan], the α in [1] is given as 0.59; in data set [1] (listed as telmisartan), under 1; in data set [3], 0.54; in [3] (listed as telmisartan), under 1. Moreover, the inhibition mechanism result in data set [3] was “mixed (non-competitive and uncompetitive)”. Moreover, the IC50 at 30 min in data set [4] worked out at 12.8 ± 0.18 µM.

The values above are taken from article PMC11157048 (Frontiers in Pharmacology, 2024).
